Data on one compound can be found in article PMC5665883, “Antithrombotic properties of JJ1, a potent and novel thrombin inhibitor” (Scientific Reports, 2017).

Where only a bound is given, the exact number is not on record here.

The target of one experiment is T1, Factor Xa (Homo sapiens, UniProt P00742).
T1 construct: thrombin versus trypsin, factor Xa, elastase, plasmin, protein Ca, streptokinase, tPA, and urokinase; purchased Haematologic Technologies (Essex Junction, VT)
Briefly: Chromogenic substrate assay, Ki (Dixon). Type of experiment: biochemical.

Another experiment concerns the target T2, Plasmin (Homo sapiens, UniProt P00747).
T2 construct: thrombin versus trypsin, factor Xa, elastase, plasmin, protein Ca, streptokinase, tPA, and urokinase
Briefly: Chromogenic substrate assay, Ki (Dixon). Type of experiment: biochemical.

Another experiment deals with tPA (Homo sapiens, UniProt P00750). Briefly: Chromogenic substrate assay, Ki (Dixon). Type of experiment: biochemical.
The target of the next experiment is Urokinase (Homo sapiens, UniProt P00749). Kind of experiment: Chromogenic substrate assay, Ki (Dixon). In kind it is biochemical.
Experiment [1] can be described thus: Ex vivo aPTT clotting time. The conditions noted are these: mice, i.v., 1 h after administration. Type of experiment: in vivo, C57BL/6 mice. Here is the method:
The aPTT and PT were determined using a Thrombotimer (Behnk Elektronik, Norderstedt, Germany) in accordance with the manufacturer’s instructions and as previously described. Briefly, citrated normal human plasma (90 μL) was mixed with 10 μL JJ1 and incubated for 1 min at 37 °C. Subsequently, the aPTT assay reagent (100 μL) was added, the plasma sample was incubated for an additional 1 min at 37 °C, 20 mM CaCl2 (100 μL) was added, and the clotting times were recorded. For the PT assays, citrated normal human plasma (90 μL) was mixed with 10 μL JJ1 stock solution and was incubated for 1 min at 37 °C. The PT assay reagent (200 μL), which had been pre-incubated for 10 min at 37 °C, was subsequently added and the clotting time was recorded. The PT results were expressed in seconds and as International Normalized Ratios (INR): INR = (PT sample/PT control)^ISI, where ISI = international sensitivity index. The aPTT results were also expressed in seconds. All experimental protocols (KNUH 2012-01-010) were approved by the Institutional Review Board of Kyungpook National University Hospitals (Daegu, Republic of Korea).
Male C57BL/6 mice were fasted overnight. Each compound was dissolved in 0.5% DMSO and administered by i.v. injection. One hour after administration, arterial blood samples (0.1 mL) were collected in 3.8% sodium citrate (1:10, v/v) for the ex vivo aPTT and PT determination. The clotting times were determined as described above.

The target of a further experiment is T3, clot-bound thrombin (Homo sapiens, UniProt P00734).
T3 construct: Fibrin clots were formed by recalcification of citrated plasma and washed extensively; from tissue; host or cells: fibrin clots from recalcified citrated plasma
Kind of experiment: Clot-bound thrombin assay, FPA generation (ELISA). In kind it is biochemical. The conditions noted are these: 60 min of incubation, FPA by ELISA; read-out: IC50, inhibition of FPA generation by clot-bound thrombin. Here is the method:
Fibrin clots were formed by recalcification of citrated plasma and washed extensively to remove any FPA trapped within the clots. Plasma was then placed over the washed clots and FPA generation was determined. There was a time-dependent generation of FPA in plasma that was not caused by the release of FPA trapped within the washed clots, because the addition of buffer over the clots produced only a minimal amount of FPA (5.25 ± 0.35 nM at 60 min) (Fig. 8). The endogenous FPA level was 5.05 ± 0.31 nM in these studies.
The generation of FPA in plasma with or without JJ1 was quantified in accordance with the manufacturer’s instructions by using a commercially available ELISA kit (LSBio, Seattle, WA). Values were measured using an ELISA plate reader (Tecan, Austria GmbH, Austria).
A general note: ELISA stands for enzyme-linked immunosorbent assay.

The next experiment deals with HUVECs. Briefly: Production of thrombin on the surfaces of HUVECs. In kind it is cell-based, human. Particulars: HUVECs with FVa, FXa, prothrombin. Here is the method:
Thrombin production by HUVECs was quantified as previously described[63],[68]. Briefly, HUVECs were pre-incubated in 300 μL of a solution containing JJ1 in 50 mM Tris-HCl buffer, 100 pM FVa, and 1 nM FXa for 10 min, followed by the addition of prothrombin to a final concentration of 1 μM. After 10 min, duplicate samples (10 μL each) were transferred into a 96-well plate containing 40 μL 0.5 M EDTA in TBS per well to terminate the prothrombin activation. Activated prothrombin was determined by the measurement of the rate of hydrolysis of S-2238 (a thrombin substrate) at 405 nm. Standard curves were prepared with known amounts of purified thrombin.

For experiment [2], the system named is thrombin-catalyzed fibrin polymerization in human plasma. Briefly: Thrombin-catalyzed fibrin polymerization. In kind it is biochemical. The conditions noted are these: absorbance at 360 nm. Here is the method:
Thrombin-catalyzed polymerization was determined every 6 s for 20 min by monitoring the turbidity of the solution at 360 nm at ambient temperature by using a spectrophotometer (TECAN, Männedorf, Switzerland). Control plasma and plasma incubated with JJ1 were diluted three-fold in […] and clotted with thrombin (final concentration: 0.5 U/mL). The maximum polymerization rate (Vmax, ΔmOD/min) from each absorbance curve was recorded.

Another experiment has as its system human platelets. Briefly: In vitro thrombin-induced platelet aggregation. In kind it is cell-based. Particulars: washed human platelets. Here is the method: The in vitro platelet aggregation study was performed according to a previously reported method[59],[62]. Washed human platelets were incubated with the indicated concentration of JJ1 in DMSO for 1, 3, 5, or 10 min and subsequently stimulated by thrombin in 0.9% saline solution at 37 °C for 5 min. Platelet aggregation was recorded using an aggregometer (Chronolog, Havertown, PA, USA). For the ex vivo aggregation assay, male mice were fasted overnight and the indicated concentration of JJ1 in DMSO was administered by i.v. injection. After 24 h, PRP (10^9 platelets/mL) in a total volume of 240 μL was incubated at 37 °C for 1.5 min in the aggregometer with continuous stirring at 1000 rpm and subsequently stimulated with thrombin. Platelet aggregation was recorded as described above.

A short description of experiment [3]: Acute pulmonary thrombosis induced by collagen and epinephrine. Type of experiment: in vivo, C57BL/6 mice. The conditions noted are these: mice, i.v. 1 h before collagen (500 μg/kg) plus epinephrine (50 μg/kg). Here is the method:
Male C57BL/6 mice were fasted overnight and divided into groups of 10 animals. JJ1 suspended in DMSO was administered to mice intravenously. After 1 h, a mixture of collagen (500 μg/kg) plus epinephrine (50 μg/kg) was injected into the tail vein of mice to induce acute thrombosis 1 h later. Each mouse was carefully examined for 15 min to determine whether the mouse was paralyzed, dead, or had recovered from the acute thrombotic challenge. Five separate experiments were performed and the results were subjected to statistical analysis.

For a further experiment, the system named is human plasma. Briefly: In vitro aPTT clotting time. In kind it is biochemical. The conditions noted are these: at the maximum antithrombotic dose.

Chain of tPA (P00750 36-562): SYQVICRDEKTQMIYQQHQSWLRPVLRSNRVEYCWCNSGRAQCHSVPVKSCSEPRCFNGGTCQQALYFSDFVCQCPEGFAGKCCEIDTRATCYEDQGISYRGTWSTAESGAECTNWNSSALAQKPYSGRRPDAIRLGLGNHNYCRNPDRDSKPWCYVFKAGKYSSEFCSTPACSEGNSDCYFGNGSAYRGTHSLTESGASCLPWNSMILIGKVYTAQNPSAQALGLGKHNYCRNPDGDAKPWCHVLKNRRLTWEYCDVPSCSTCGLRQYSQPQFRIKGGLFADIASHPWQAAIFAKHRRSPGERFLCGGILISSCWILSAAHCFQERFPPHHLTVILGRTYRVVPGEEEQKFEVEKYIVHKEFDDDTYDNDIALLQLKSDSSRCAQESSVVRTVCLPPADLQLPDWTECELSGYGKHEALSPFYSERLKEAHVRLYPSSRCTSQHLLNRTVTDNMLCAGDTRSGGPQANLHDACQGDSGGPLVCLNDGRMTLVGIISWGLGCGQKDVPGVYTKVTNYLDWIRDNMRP
T2 sequence (P00747 581-810 limits assumed): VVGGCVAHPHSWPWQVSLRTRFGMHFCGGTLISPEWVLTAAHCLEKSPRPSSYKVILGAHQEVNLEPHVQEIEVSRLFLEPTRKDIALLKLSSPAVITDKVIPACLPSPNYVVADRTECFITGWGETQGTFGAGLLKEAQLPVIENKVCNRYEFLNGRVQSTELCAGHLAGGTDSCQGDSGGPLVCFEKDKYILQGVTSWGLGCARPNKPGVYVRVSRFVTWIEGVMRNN
T2 sequence (P00747 97-580 limits assumed): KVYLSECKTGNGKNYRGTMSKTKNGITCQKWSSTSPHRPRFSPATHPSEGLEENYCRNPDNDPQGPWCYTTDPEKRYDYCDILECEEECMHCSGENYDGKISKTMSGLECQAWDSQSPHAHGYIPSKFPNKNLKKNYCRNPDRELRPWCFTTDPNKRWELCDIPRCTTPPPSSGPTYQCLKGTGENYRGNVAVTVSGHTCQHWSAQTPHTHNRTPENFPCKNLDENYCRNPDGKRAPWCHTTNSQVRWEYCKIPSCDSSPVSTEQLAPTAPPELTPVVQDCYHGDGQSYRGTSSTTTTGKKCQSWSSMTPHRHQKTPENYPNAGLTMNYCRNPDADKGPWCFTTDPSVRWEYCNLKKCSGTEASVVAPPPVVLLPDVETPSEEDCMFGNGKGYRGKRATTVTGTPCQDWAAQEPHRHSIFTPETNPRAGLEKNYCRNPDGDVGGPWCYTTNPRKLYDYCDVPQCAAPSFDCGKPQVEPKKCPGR
T1 sequence (P00742 235-488 limits assumed): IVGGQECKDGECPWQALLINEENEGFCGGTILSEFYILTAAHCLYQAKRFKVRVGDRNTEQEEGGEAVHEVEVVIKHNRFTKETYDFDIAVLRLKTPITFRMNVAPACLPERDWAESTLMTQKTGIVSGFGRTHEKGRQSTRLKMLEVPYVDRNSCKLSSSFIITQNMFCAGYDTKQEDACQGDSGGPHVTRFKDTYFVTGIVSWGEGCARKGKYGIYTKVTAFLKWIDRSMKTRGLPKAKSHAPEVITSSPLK
T1 sequence (P00742 41-179 limits assumed): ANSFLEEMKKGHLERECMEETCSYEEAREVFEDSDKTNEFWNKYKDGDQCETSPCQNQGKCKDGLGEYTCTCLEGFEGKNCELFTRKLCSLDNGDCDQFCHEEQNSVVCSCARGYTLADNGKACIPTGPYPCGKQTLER
Protocol for Factor Xa: (§1) Chromogenic substrate assays were performed using a Labsystems IEMS (Cergy Pontoise, France) microtiter plate reader. K i values were calculated according to the method of Dixon[65]. In each assay, the compound was tested at a minimum of seven concentrations, in duplicate, to obtain an inhibition curve. The following general procedures were adopted for each assay. In a 96-well microtiter plate, 25 μL of inhibitor solution or buffer was added to 50 μL of substrate. The enzyme solution (25 μL) was added just before the plate was placed in the microtiter plate reader for 1 h at 37 °C. The hydrolysis of the substrate yields p-nitroaniline, which was continuously monitored spectrophotometrically at 405 nm. The maximal initial reaction rates were calculated and expressed as millioptical density per minute.
Protocol for Plasmin: as §1
Protocol for Urokinase: as §1
Protocol for tPA: as §1

Turning to `c1ccc2c(NC3CCCC3)nc(Nc3ccncc3)nc2c1` [JJ1], the Ki on Factor Xa (Factor Xa), at Plasmin (Plasmin), at tPA (tPA) and on Urokinase (Urokinase) was above 250 µM throughout. For the same compound, the Selectivity ratio at Factor Xa (K i Factor Xa/K i α-thrombin), on Plasmin (K i Plasmin/K i α-thrombin), on tPA (K i tPA/K i α-thrombin) and on Urokinase (K i Urokinase/K i α-thrombin) was >10,000 in each case. For the same compound, the aPTT in experiment [1] (0.31 μg/mouse) was found to be 31.9 ± 0.6 s; in experiment [1] (0.61 μg/mouse), 40.1 ± 1.1 s; in experiment [1] (1.23 μg/mouse), 49.4 ± 1.5 s; in experiment [1] (3.06 μg/mouse) it was 55.8 ± 1.2 s. In addition, the IC50 at clot-bound thrombin came to 2.45 µM. For the same compound, in the experiment on HUVECs, the Production of thrombin result is on record as “inhibited the production of thrombin in a dose-dependent manner”. Besides, in experiment [2], the “Maximal rate of fibrin polymerization” value is “significantly decreased the maximal rate of fibrin polymerization”. Moreover, the “Human platelet aggregation induced by thrombin” value in the experiment with human platelets was “significantly inhibited human platelet aggregation induced by thrombin in a concentration-dependent manner”. For the same compound, the Mortality result in [3] is reported as “decreased significantly”. Moreover, the “Prolongation of aPTT” value in the experiment on human plasma is recorded as 2.17 fold.

One may read the Ki as a measure of affinity in units of concentration, obtained from inhibition or displacement. Read a high Ki as weaker binding.
